The values that follow come from patent US20250136722A1, “CYTOTOXICITY TARGETING CHIMERAS” (GLAXOSMITHKLINE INTELLECTUAL PROPERTY DEVELOPMENT LIMITED, priority 2021, published 2025).

Structures are written as SMILES. Several values for one entry are separate records, joined by “and”; a condition that tells them apart may be missing. Equal values may be shown once.

Assay [1] deals with CCR2 expressing cells (CD11b+Ly6c+ Hi) in peripheral blood. Nature of the assay: In vivo depletion assay, flow cytometry of peripheral blood (Example 201). More on the design: species or system Human CCR2 (hCCR2) knock-in mice (C57 background). Conditions: hCCR2 knock-in mice; IV 0.1 mpk compound + 10 mpk anti-cotinine antibody (SEQ ID NO: 13/14); peripheral blood at 48 hr. How it is done:
Stock solution preparation: Stock solutions of compounds of Formula (I) were prepared at 20 mg/mL and 100 mg/mL in DMSO for PK/PD and dose tolerability studies respectively. Stock solutions were stored at −20° C. until further usage.
Formulations preparation: On the day of experiment, the stock solution of the compound of Formula (I) was removed from storage at −20° C. and thawed at room temperature. Anti-cotinine antibody having a heavy chain sequence of SEQ ID NO: 13 and a light chain sequence of SEQ ID NO: 14 (rabbit variable region sequence with mouse IgG2a Fc domain), if required was removed from storage at −80° C. and thawed at room temperature. Antibody vials were immediately transferred into wet ice after thawing. Compounds of Formula (I) were further diluted in DMSO as per experimental requirements.
Formulation composition: The formulation composition was Saline:DMSO:PBS. Saline was added based on the quantity required and then stock solution of the compound of Formula (I) prepared in DMSO, followed by addition of antibody in PBS. Formulations were incubated at room temperature for 30 minutes before administration to the mouse. DMSO was used at 1 to 2% (v/v) in the final formulation.
After bleeding, each mouse was sacrificed by cervical dislocation.
CCR2 depletion in peripheral blood was determined by flow cytometry. Briefly, peripheral blood was collected from all animals at the end of study termination and processed. Blood samples were lysed using 1× RBC Lysis buffer and the resulting cell pellet was washed twice in FACS buffer (HBSS containing 5% FBS). Cells were subjected to Fc blocking using mouse Fc block from Biolegend (Trustain, anti-mouse CD16/32, Cat: 101319) to block non-specific binding followed by surface staining for immune markers (CD45, CD3, CD11b, Ly6C, human CCR2). Surface staining was done for 30 minutes in ice and cells were washed twice to remove unbound antibodies. Cells were stained with 7AAD to determine viability and acquired on BD FACSVerse flow cytometer. Appropriate FMO controls and single-color controls were included in the experiment for gating and compensation respectively.
Percent depletion of CD11b+Ly6c+ Hi cells and CCR2 expression for the different treatment groups was determined.
On the technique in general: Flow cytometry measures light scatter and fluorescence of single cells or particles in a stream.

In assay [2] the test system is Anti-cotinine antibody SEQ ID NO: 9 / SEQ ID NO: 10 (humanized version). Description: Binding of humanized anti-cotinine antibody to ARM compounds by SPR, Biacore 8k, 25° C. (Example 202). Conditions: top concentration 2.50E−08 M. The source says:
(§1) Anti-cotinine antibodies having a heavy chain sequence of SEQ ID NO: 9 and a light chain sequence of SEQ ID NO: 10 (humanized version) or a heavy chain sequence of SEQ ID NO: 11 and a light chain sequence of SEQ ID NO: 12 (rabbit version) were captured via the Fc domain to a protein A or A/G surface on flow cell 2 of a CM5 sensor chip using the Biacore 8k.
(§2) After antibody capture, a 1500 second wait step was included to reduce drift in the binding step. ARM compounds of Formula (I) were then flowed over the captured antibodies at varying top concentrations ranging from 250 nM to 4 μM (see Table 6 below for top concentration values). The top concentration was diluted 4-fold over 5 dilutions (with a 0 nM compound cycle included to blank subtract the data). Association and dissociation times of the ARMs compounds of Formula (I) varied between experiments as follows and indicated in Table 6 below: reference 1—association for 600 seconds and dissociation for 1200 seconds at 20 μl/min; reference 2—association for 240 seconds and dissociation for 300 seconds at 30 μl/min; reference 3—association for 360 seconds and dissociation for 600 seconds at 30 μl/min. Anti-cotinine antibody bound to the protein A or A/G surface was regenerated using 50 mM NaOH. Experiments were run at 25° C. at pH 7.4 using HBS-EP+ buffer using Biacore 8K control software and evaluated using Biacore Insight Evaluation software. Curves were fit with the 1:1 kinetic fit inherent to the software, utilising a local Rmax and local drift setting.
(§3) Anti-cotinine antibody was tested for binding to ARMs compounds of Formula (I) of the invention in the above assay in or more experimental runs and the results are shown in Table 6 below. Affinity is reported as a pKd value. The pKd value is the negative log of the Kd value, wherein the Kd value is the dissociation constant measured in molar (M) as noted above. For compounds tested in more than one experimental run, the pKd value is reported as an average.
Background: Surface plasmon resonance follows binding to a sensor surface in real time, without labels.

For assay [3], the target named is Anti-cotinine antibody SEQ ID NO: 11 / SEQ ID NO: 12 (rabbit version). Description: Binding of rabbit anti-cotinine antibody to ARM compounds by SPR, Biacore 8k, 25° C. (Example 202).
Description: as §1, §2, §3

Setting [4] is: reference 3: association 360 s, dissociation 600 s at 30 μl/min.
The mark [5] stands for this setting: reference 3: association 360 s, dissociation 600 s at 30 μl/min, top concentration 2.50E−08 or 6.25E−09 M.

Turning to `CN1C(=O)C[C@H](C(=O)NCCOCCOCCOCCOCCOCCC(=O)N[C@@H]2C[C@H](NC(C)(C)C)CC[C@@H]2N2CC[C@H](Nc3ncnc4ccc(C(F)(F)F)cc34)C2=O)[C@H]1c1cccnc1` [Example 37], the “% Depletion of CCR2 expressing cells” value in assay [1] was 75%.

With `CN1C(=O)C[C@H](C(=O)NCCOCCOCCOCCOCCOCCOCCC(=O)N[C@@H]2C[C@H](NC(C)(C)C)CC[C@@H]2N2CC[C@H](Nc3ncnc4ccc(C(F)(F)F)cc34)C2=O)[C@H]1c1cccnc1` [Example 38], the “% Depletion of CCR2 expressing cells” value in assay [1] is reported as 84.55%.

Take `CN1C(=O)C[C@H](C(=O)NCCO[C@H]2CC[C@H](OCCCC(=O)N[C@H]3CC[C@H](C(=O)N[C@@H]4C[C@H](NC(C)(C)C)CC[C@@H]4N4CC[C@H](Nc5ncnc6ccc(C(F)(F)F)cc56)C4=O)CC3)CC2)[C@H]1c1cccnc1` [Example 10]: in assay [2] (setting [4]), the ka is 1.42e+06 M⁻¹ s⁻¹; the kd worked out at 0.000484 s⁻¹; the pKd – broadly, −log10 of the Kd, conventionally taken in molar units – amounted to 9.47. Also, in assay [3] (reference 2: association 240 s, dissociation 300 s at 30 μl/min, top concentration 1.00E−06 or 4.00E−06 M), the pKd entry was “Poor fit”.

On to `CC(C)N(C)[C@@H]1CC[C@H](N2CC[C@H](Nc3ncnc4ccc(C(F)(F)F)cc34)C2=O)[C@H](NC(=O)[C@H]2CC[C@H](NC(=O)CCCO[C@H]3CC[C@H](OCCNC(=O)[C@H]4CC(=O)N(C)[C@@H]4c4cccnc4)CC3)CC2)C1` [Example 1, (2S,3S)-N-(2-(((1R,4S)-4-(4-(((1R,4R)-4-(((1R,2S,5R)-5-(Isopropyl(methyl)amino)-2-((S)-2-oxo-3-((6-(trifluoromethyl)quinazolin-4-yl)amino)pyrrolidin-1-yl)cyclohexyl)carbamoyl)cyclohexyl)amino)-4-oxobutoxy)cyclohexyl)oxy)ethyl)-1-methyl-5-oxo-2-(pyridin-3-yl)pyrrolidine-3-carboxamide], for which the kd was 0.000456 s⁻¹ and 0.000649 s⁻¹ in assay [2] (reference 1: association 600 s, dissociation 1200 s at 20 μl/min); 0.000414 s⁻¹ in assay [2] (setting [4]); 0.000156 s⁻¹ in assay [3] (setting [5]). Besides, the ka in assay [2] (setting [4]) was found to be 1.64e+06 M⁻¹ s⁻¹; in assay [3] (setting [5]), 5.57e+06 M⁻¹ s⁻¹. Further, the pKd in assay [2] (setting [4]) is 9.6; in assay [3] (setting [5]) it was 10.55.
